Data as given in ChEMBL document CHEMBL5537193, “Multitargeting HDAC Inhibitors Containing a RAS/RAF Protein Interfering Unit” (J Med Chem, 2024).
Calls of active or inactive are those of the source. No cut-off for these calls is given here.

Legend:
[1] = system: L02; test: cells; conditions: Homo sapiens, L02, 72 h
Description: Cytotoxicity against human L02 cells assessed as inhibition of cell growth incubated for 72 hrs by MTT assay

[2] = system: SGC-7901; test: cells; conditions: Homo sapiens, SGC-7901, 72 h
Description: Cytotoxicity against human SGC-7901 cells assessed as inhibition of cell growth incubated for 72 hrs by MTT assay

[3] = system: HepG2; test: cells; conditions: Homo sapiens, HepG2, 72 h
Description: Cytotoxicity against human HepG2 cells assessed as inhibition of cell growth incubated for 72 hrs by MTT assay

[4] = system: A549; test: cells; conditions: Homo sapiens, A549, 72 h
Description: Cytotoxicity against human A549 cells assessed as inhibition of cell growth incubated for 72 hrs by MTT assay

[5] = system: MCF7; test: cells; conditions: Homo sapiens, MCF7, 72 h
Description: Cytotoxicity against human MCF7 cells assessed as inhibition of cell growth incubated for 72 hrs by MTT assay

[6] = system: NCI-H1975; test: cells; conditions: Homo sapiens, NCI-H1975, 72 h
Description: Cytotoxicity against human NCI-H1975 cells assessed as inhibition of cell growth incubated for 72 hrs by MTT assay

[7] = system: A-431; test: cells; conditions: Homo sapiens, A-431, 72 h
Description: Cytotoxicity against human A-431 cells assessed as inhibition of cell growth incubated for 72 hrs by MTT assay

[8] = system: PANC-1; test: Cell cycle arrest in human PANC-1 cells assessed as accumulation of cells at GO-G1 phase at 2 uM incubated for 24 hrs by PI/RNase staining based flow cytometric analysis; assay type: functional
[9] = system: HT-29; test: Induction of apoptosis in human HT-29 cells assessed as apoptotic ratio at 2 uM incubated for 24 hrs by flow cytometric analysis; assay type: functional
[10] = system: PANC-1; test: Induction of apoptosis in human PANC-1 cells assessed as increase in Cytochrome C expression level at 2 uM incubated for 24 hrs by Western blot analysis; assay type: functional, cell-based
[11] = system: PANC-1; test: Induction of apoptosis in human PANC-1 cells assessed as increase in cleaved caspase-9 expression level at 2 uM incubated for 24 hrs by Western blot analysis; assay type: functional, cell-based
[12] = system: PANC-1; test: Induction of apoptosis in human PANC-1 cells assessed as apoptotic cells at 2 uM incubated for 24 hrs by flow cytometric analysis relative to control; assay type: functional
[13] = system: PANC-1; test: Induction of apoptosis in human PANC-1 cells assessed as increase in cleaved PARP expression level at 2 uM incubated for 24 hrs by Western blot analysis; assay type: functional, cell-based
[14] = system: PANC-1; test: Induction of apoptosis in human PANC-1 cells assessed as increase in Bax expression at 2 uM incubated for 24 hrs by Western blot analysis; assay type: functional, cell-based
[15] = biological target: Serine/threonine-protein kinase PLK1 (Homo sapiens, UniProt P53350); test: Inhibition of PLK1 (unknown origin)
[16] = system: PANC-1; test: Induction of apoptosis in human PANC-1 cells assessed as increase in cleaved caspase-3 expression level at 2 uM incubated for 24 hrs by Western blot analysis; assay type: functional, cell-based

Chain of Serine/threonine-protein kinase PLK1 (P53350 whole entry): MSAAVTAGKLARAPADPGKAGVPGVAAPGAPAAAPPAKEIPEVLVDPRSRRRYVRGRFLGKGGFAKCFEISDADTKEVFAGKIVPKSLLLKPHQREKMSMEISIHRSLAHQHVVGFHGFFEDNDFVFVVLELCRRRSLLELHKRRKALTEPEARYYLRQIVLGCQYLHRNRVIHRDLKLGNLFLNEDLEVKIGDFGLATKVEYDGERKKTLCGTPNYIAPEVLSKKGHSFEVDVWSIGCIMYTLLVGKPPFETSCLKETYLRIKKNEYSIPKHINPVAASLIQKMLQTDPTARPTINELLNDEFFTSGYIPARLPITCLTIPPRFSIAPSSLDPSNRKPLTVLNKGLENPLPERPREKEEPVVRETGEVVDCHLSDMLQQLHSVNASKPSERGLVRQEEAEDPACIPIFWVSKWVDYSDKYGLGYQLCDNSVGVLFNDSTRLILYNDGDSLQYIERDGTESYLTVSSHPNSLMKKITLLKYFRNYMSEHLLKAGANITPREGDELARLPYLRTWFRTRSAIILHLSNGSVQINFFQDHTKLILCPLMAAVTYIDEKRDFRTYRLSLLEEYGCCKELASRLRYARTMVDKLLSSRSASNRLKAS

Row | Structure (SMILES) | IC50 [1] | IC50 [2] | IC50 [3] | IC50 [4] | IC50 [5] | IC50 [6] | IC50 [7] | Activity [8] | Activity [9] | Activity [10] | Activity [11] | Activity [12] | Activity [13] | Activity [14] | IC50 [15] | Activity [16]
1 | COc1cc(OC)c(/C=C/S(=O)(=O)Cc2ccc(OC)c(NC(=O)CCCC(=O)NO)c2)c(OC)c1 | > 40 µM | 1.87 µM | 5.89 µM | 1.74 µM | 3.78 µM | 0.67 µM | 11.4 µM |  |  |  |  |  |  |  |  | 
2 | COc1cc(OC)c(/C=C/S(=O)(=O)Cc2ccc(OC)c(NC(=O)CCCCC(=O)Nc3ccccc3N)c2)c(OC)c1 | > 40 µM | 17.2 µM | 27.4 µM | 16.7 µM | 11.7 µM | 18.8 µM | 20.6 µM |  |  |  |  |  |  |  |  | 
3 | COc1cc(OC)c(/C=C/S(=O)(=O)Cc2ccc(OC)c(NC(=O)CCC(=O)Nc3ccccc3N)c2)c(OC)c1 | > 40 µM | 6.6 µM | 12.3 µM | 7.41 µM | 13.2 µM | 2.58 µM | 1.26 µM |  |  |  |  |  |  |  |  | 
4 | COc1cc(OC)c(/C=C/S(=O)(=O)Cc2ccc(OC)c(NC(=O)CCCC(=O)Nc3ccccc3N)c2)c(OC)c1 | > 40 µM | 31.9 µM | 18.6 µM | 35.5 µM | 17.7 µM | 8.45 µM | 4.11 µM |  |  |  |  |  |  |  |  | 
5 | COc1cc(OC)c(/C=C/S(=O)(=O)Cc2ccc(OC)c(NCCC(=O)Nc3ccccc3N)c2)c(OC)c1 | > 40 µM | 13.2 µM | 7.3 µM | 11.3 µM | 12.6 µM | 5.11 µM | 8.69 µM |  |  |  |  |  |  |  |  | 
6 | COc1cc(OC)c(/C=C/S(=O)(=O)Cc2ccc(OC)c(NC(=O)CCCCC(=O)NO)c2)c(OC)c1 | > 40 µM | 12.3 µM | 29.1 µM | 8.56 µM | 9.68 µM | 9.48 µM | 18.8 µM |  |  |  |  |  |  |  |  | 
7 | O=C(CCCCCCC(=O)Nc1ccccc1)NO [VORINOSTAT] |  | 2.89 µM |  |  |  |  |  | Active | 21.4% | Active | Active | 20.5% | Active | Active | 1.6 µM | Active
